Columns and labels:
PDE5 (human recombinant) = PDE5 (human recombinant) (Homo sapiens, UniProt O76074); experiment: PDE5 inhibition (SPA or modified FP assay); type: biochemical; conditions: n = 1; accuracy ±about 0.5 log unit; read-out: PDE5 pIC50 (converted)
Source text: Human recombinant PDE5 is disclosed in K. Loughney et al., “Isolation and characterisation of cDNAs encoding PDE5A, a human cGMP-binding, cGMP-specific 3′,5′-cyclic nucleotide phosphodiesterase”, Gene, 1998, 216, 139-147.
The ability of compounds to inhibit catalytic activity at PDE4B or 4D (human recombinant), PDE3 (from bovine aorta), PDE5 (human recombinant) or PDE6 (from bovine retina) can optionally be determined by Scintillation Proximity Assay (SPA) in a 96-well format.
Test compounds (as a solution in DMSO, preferably about 2 microliters (ul) volume of DMSO solution) are preincubated at ambient temperature (room temperature, e.g. 19-23° C.) in Wallac Isoplates (code 1450-514) with PDE enzyme in 50 mM Tris-HCl buffer pH 7.5, 8.3 mM MgCl2, 1.7 mM EGTA, 0.05% (w/v) bovine serum albumin for 10-30 minutes (usually 30 minutes). The enzyme concentration is adjusted so that no more than 20% hydrolysis of the substrate defined below occurs in control wells without compound, during the incubation. […] Bound radioactive product is measured using a WALLAC TRILUX 1450 Microbeta scintillation counter. […] Curves are analysed using ActivityBase and XLfit (ID Business Solutions Limited, 2 Ocean Court, Surrey Research Park, Guildford, Surrey GU2 7QB, United Kingdom) Results are expressed as pIC50 values. […]

[1] = tested on: Dinitrofluorobenzene (DNFB)-induced delayed type hypersensitivity (DTH) response in pigs; experiment: Pig model of atopic dermatitis: DNFB-induced DTH response, skin topical administration; type: in vivo
Source text: The pig DTH (delayed type hypersensitivity) model of contact hypersensitivity utilizes the Th2-mediated inflammatory response in pig skin to mimic the pathology of atopic dermatitis in humans. The model measures the potential anti-inflammatory effect of compounds, topically-applied to the skin, on the acute DTH (delayed type hypersensitivity) response in castrated male Yorkshire pigs.
In general in the assay, pigs (domestic Yorkshire pigs, 15-18 kg at time of sensitization, castrated males) are first sensitized by topical application of ca. 10% (w/v) dinitrofluorobenzene (DNFB) dissolved in DMSO:acetone:olive oil (ca. 1:5:3) (ca. 40 mg DNFB, 400 microlitre solution total) to the ears (outer) and groin (inner). The pigs are then challenged 12 days later with ca. 0.6% (w/v) DNFB applied to randomized sites on the shaved back of the pigs (ca. 90 micrograms/site; sites are identified and numbered by grid made with marking pen).
On the day of challenge, the treatments are performed at about 2 hours prior to and about 6 hours after challenge (for DMSO/acetone solutions/suspensions, to maximize exposure to drug), or at about 30 minutes after and about 6 hours after challenge (for topical ointments or creams, representing a more clinically relevant treatment protocol).
One day (about 24 hrs) after challenge, and optionally again at ca. 48 hrs post challenge, test sites are visually evaluated for intensity and extent of erythema by measuring the diameter of the reaction at its widest point and assigning scores of 0 to 4 for each of erythema intensity and erythema extent. Induration (a measure of swelling) is also scored 0 to 4. Scores for erythema intensity, erythema extent and induration are assigned according to the following criteria: Intensity of Erythema: 0=normal, 1=minimal, barely visible, 2=mild, 3=moderate, 4=severe. Extent of Erythema (not raised): 0=no edema, 1=macules of pin head size, 2=lentil sized macules, 3=confluent macules, 4=diffuse over entire site. Induration (palpable): 0=normal, 1=nodules of pin head size, 2=doughy lentil sized nodules, 3=confluent firm nodules, 4=diffuse hard lesion. The summed visual score at ca. 24 hours includes the individual scores for erythema intensity, erythema extent, and induration; so the maximal summed score for each site would be 12. High summed scores can generally indicate a high inflammatory response. Visual scores are subject to some inaccuracy/error.
Differences in the summed score between adjacent control (placebo) and treatment sites on the grids are calculated. This difference value is then used to determine the percent inhibition compared to the summed score for the control (placebo) sites. The more negative the difference value, the greater the calculated inhibition. Percent inhibition of (percent inhibition compared to) the mean summed score can be calculated.
About 24 hours after challenge, treatment sites can optionally also be visually evaluated for lesion area.
The anti-inflammatory effect of the compound of formula (I) (“free base” form), applied topically to the skin, on the acute DTH response in castrated male Yorkshire pigs is compared to that of another PDE4 inhibitor cipamfylline (BRL-61063) and the topical immunomodulator pimecrolimus.
In the above assay, the compound of formula (I) is topically administered: either (A) at ca. 2.5% (w/v) concentration in a solution of ca. 10% DMSO/90% acetone (ca. 50 microliters or ca. 1.5 mg/site) at about 2 hours prior to and about 6 hours after the DNFB challenge; or (B) at ca. 0.5% (w/w) concentration in an ointment containing propylene glycol (PG)*(ca. 25 mg of formulation/site) at about 30 minutes after and about 6 hours after the DNFB challenge. […]

In the case of `CCn1ncc2c(NC3CCN(C(N)=O)CC3)c(C(=O)NCc3ccc(C)c(C)c3)cnc21` [compound of formula (I), 4-{[1-(aminocarbonyl)-4-piperidinyl]amino}-N-[(3,4-dimethylphenyl)methyl]-1-ethyl-1H-pyrazolo[3,4-b]pyridine-5-carboxamide], the IC50 (PDE5 (human recombinant)) is reported as 490 nM, the “inhibition of mean summed score (erythema intensity, erythema extent, induration)” value ([1]; ca. 0.5% (w/w) in PG ointment, vs placebo PG ointment, ca. 24 h after challenge, p<0.05 by ANOVA) is reported as 13-14% and the “reduction in mean summed score” value ([1]; ca. 2.5% (w/v) in DMSO/acetone solution, vs vehicle alone, ca. 24 h after challenge) is reported as “about 21%”. The lesion area ([1]; skin administration in DMSO/acetone or PG ointment, subject to some inaccuracy/error) was “decrease the lesion area”.

Reference: US7709497B2, “Pyrazolo[3,4-b]pyridine compound, and its use as a PDE4 inhibitor” (Glaxo Group Limited, priority 2004, dated 2010)
